{"source": "patent US12115177B1", "about": "“Application of phenyl glucuronide in preparing drug for pre-warning of cancer via induced volatolomics” (Shanghai Jiao Tong University, priority 2023, dated 2024)", "key": {"[1]": {"experiment": "Stability verification of phenyl-β-D-glucuronide PBS solution (UPLC-MS and PDA detector)", "format": "physicochemical", "details": "for peak area of phenyl-β-D-glucuronide: 400 μg/mL in PBS, PDA detector at 280 nm", "protocol": "PBS is used as solvent to prepare a phenyl-β-D-glucuronide solution at a concentration of 400 micrograms per milliliter (μg/mL), 1 mL phenyl-β-D-glucuronide solution is added individually into 1.5-mL injection bottles and sealed. The four bottles of drug solutions are treated as follows: the bottle A is a ready-to-use drug immediately analyzed for composition using ultra performance liquid chromatography mass spectrometry (UPLC-MS); the bottle B is placed in a refrigerator at 4° C. for 2 weeks and then analyzed for composition using UPLC-MS; the bottle C is placed at room temperature (25° C.) for 1 week and then analyzed for composition using UPLC-MS; and the ready-to-use drug in bottle D is analyzed for composition using UPLC-MS and […] (PDA) detectors after heating for 7 hours at 38.5° C. in a water bath. In addition, a 20 parts per million (ppm) phenol standard solution is prepared for UPLC-MS and PDA analysis.\nThe results are shown in FIGS. 1A-1D, FIGS. 2A-2D, and FIGS. 3A-3E.\nThe main purpose of setting these three temperatures (i.e., room temperature, 4° C., and 38.5° C.) is to characterize that the drug can be stored in a 4° C. refrigerator or room temperature for a long time without decomposition or deterioration. From the peak area data, it can be seen that the drug can be stored in a 4° C. refrigerator for 2 weeks or at room temperature for 1 week, and the effective component of the drug, phenyl-β-D-glucuronide, is basically unchanged, so under the condition of qualified sealing conditions, the drug solution can be stored for a longer time, which has practical application potential."}, "[2]": {"tested_on": "MGC-803 subcutaneous gastric cancer model", "method": "In the embodiment of the disclosure, the mice used are 6-week-old female BALB/c-nude mice, specific pathogen-free (SPF) grade, and the weight at purchase is 17±1.5 g. purchased from Shanghai Jessie Experimental Animal Co., Ltd. Mice are raised in cages in clean animal rooms. The cages are ventilated through a central control system. The indoor temperature is 25±2° C., and the feed and water are used after autoclaved.\nAfter one week of adaptive feeding of the nude mice, the body weight is 20±2 g. During the feeding period, the growth and mental state of the mice are observed every day. The mice are randomly divided into two groups, namely a cancer group and a healthy group. In the cancer group, MGC-803 cells are used to construct a subcutaneous gastric cancer model. […] After the cells are adhered to the wall and grown to full size, they are digested with pancreatic enzyme, centrifuged, washed twice with PBS to remove residual serum, resuspended with PBS at a cell density of approximately about 5*10^7 cells/mL, and a cell inoculation volume of each mouse is 100 μL. The cell suspension used for inoculation should be inoculated within half an hour. During this period, the cells are placed on ice to reduce the metabolic activity of the cells to maintain cell activity. The tumor is implanted in the area with abundant blood supply in the middle and rear of the armpit, and the size of the tumor is measured weekly after the tumor is formed. Generally, the induced volatolomics experiment can be started at the third week after the implantation of the cells.\nThe exhaled breath extraction device enriches the volatile substances in the exhaled breath of mice to the extraction core of headspace solid-phase microextraction (SPME), which is used to analyze the composition and relative content of the exhaled breath of mice before and after drug administration. A large mouth glass container with a volume of about 400 mL is used, the bottle mouth is frosted, and the sealing gasket, silicone plug and fixing clip are used to ensure sealing. The device is cleaned and dried before use. The mice needed to extract exhaled breath components are put into the glass container. The whole device is placed in a constant temperature environment of 25° C., sealed for 1 hour, and supplemented with oxygen at an interval of 15 minutes by injecting 10 mL of pure oxygen (99.9%) through the silicone plug with a glass syringe. After sealing for 1 hour, a 75 μm Car/PDMS extraction core is inserted into the glass container through the silicone plug, and the black extraction core is extended for headspace solid-phase microextraction for 30 minutes. The extraction process is carried out at a constant temperature of 25° C., and the oxygen is supplemented regularly according to the above process.\nThe above 10 healthy mice and 10 tumor bearing mice are taken and injected with MGC-803 cells subcutaneously as Day 0 in the experiment."}, "[3]": {"tested_on": "gastric mucosal epithelial cells", "details": "500 μg/mL, 40 hours incubation, CCK-8", "method": "There is culture medium without inoculation of the cells with 100 μL per well. After incubation for 40 hours, the culture medium is discarded, 100 μL DMEM medium containing 10% cell counting kit 8 (CCK-8) is added to each well, and then incubated in the incubator for 2 hours. The value of optical density (OD) at 450 nm is monitored with a microplate reader for each well, and the cell viability is calculated based on the value of optical density."}, "β-glucuronidase": {"biological_target": "T1, β-glucuronidase (Escherichia coli, UniProt P05804)", "T1 construct": "purchased Sigma-Aldrich 8162", "T1 sequence (P05804 whole entry)": "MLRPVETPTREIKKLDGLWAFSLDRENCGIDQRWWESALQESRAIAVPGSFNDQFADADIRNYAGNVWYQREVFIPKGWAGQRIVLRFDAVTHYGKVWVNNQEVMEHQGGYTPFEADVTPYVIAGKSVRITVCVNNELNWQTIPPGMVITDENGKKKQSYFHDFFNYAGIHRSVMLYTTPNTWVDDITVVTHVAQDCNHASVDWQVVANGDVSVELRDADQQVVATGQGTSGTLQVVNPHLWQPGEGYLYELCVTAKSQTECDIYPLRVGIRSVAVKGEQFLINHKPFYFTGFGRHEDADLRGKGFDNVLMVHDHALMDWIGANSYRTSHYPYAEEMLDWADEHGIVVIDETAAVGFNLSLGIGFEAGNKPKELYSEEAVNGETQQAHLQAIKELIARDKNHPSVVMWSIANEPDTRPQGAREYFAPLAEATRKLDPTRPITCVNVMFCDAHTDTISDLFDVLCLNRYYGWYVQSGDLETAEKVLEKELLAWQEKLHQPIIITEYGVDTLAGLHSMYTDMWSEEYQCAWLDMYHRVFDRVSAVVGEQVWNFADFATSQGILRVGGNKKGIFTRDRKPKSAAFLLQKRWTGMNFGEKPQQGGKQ", "experiment": "In vitro enzymatic reaction with β-glucuronidase, headspace SPME GC-MS detection of phenol", "format": "biochemical", "details": "pH 6.8 buffer, 37° C., 1 hour", "protocol": "A buffer is prepared with sterile water, the main components of the buffer include 75 millimoles per liter (mM) potassium phosphate (KH2PO4) and 1% bovine serum albumin (BSA), and 1 mole per liter (M) potassium hydroxide (KOH) is used to adjust the pH to 6.8. A phenyl-β-D-glucuronide solution is prepared with deionized water at a concentration of 0.75 grams per liter (g/L). The experiment is divided into a reactive group (also referred to as experimental group) and a control group, and 2.6 mL of deionized water, 2 mL of buffer and 1 mL of phenyl-β-D-glucuronide solution are successively added into two 20 mL injection bottles. After shaking well, they are stabilized in a water bath at 37° C. for 10 minutes. 2 microliters (μL) of β-glucuronidase glycerol solution (enzyme content: 500 U) are added in the bottle of the reactive group, and 2 uL of glycerol is added in the bottle of the control group. The covers are quickly tightened for reacting in a water bath at 37° C. for 1 hour. After the reaction, the aged extraction core is used for headspace solid-phase microextraction (also referred to as solid phase microextraction) for 30 minutes."}}}
{"smiles": "O=C(O)[C@H]1O[C@@H](Oc2ccccc2)[C@H](O)[C@@H](O)[C@@H]1O", "note": "[phenyl-β-D-glucuronide]", "values": [{"measurement": "peak area of phenyl-β-D-glucuronide", "setting": "[1]; bottle A, newly prepared", "value": 2143}, {"measurement": "peak area of phenyl-β-D-glucuronide", "setting": "[1]; bottle B, refrigerator at 4° C. for 2 weeks", "value": 2142}, {"measurement": "peak area of phenyl-β-D-glucuronide", "setting": "[1]; bottle C, room temperature (25° C.) for 1 week", "value": 2144}, {"measurement": "peak area of phenyl-β-D-glucuronide", "setting": "[1]; bottle D, heated 7 hours at 38.5° C. in a water bath", "value": 2160}, {"measurement": "storage time of PBS solution", "setting": "[1]; 4° C. refrigerator", "value": "at least 2 weeks"}, {"measurement": "new substances produced (other peaks) in the four bottles of solutions", "setting": "[1]; all four storage conditions, UPLC-MS and PDA", "value": "no other peaks of the new substances produced"}, {"measurement": "peak of phenol in the four bottles of solutions compared with phenol standard", "setting": "[1]; all four storage conditions, versus 20 ppm phenol standard", "value": "no peak of phenol"}, {"measurement": "self-decomposition without the action of enzymes", "setting": "[1]; normal body temperature range (generally less than 38.5° C.)", "value": "will not decompose by itself"}, {"measurement": "storage time of PBS solution", "setting": "[1]; room temperature", "value": "at least 1 week"}, {"measurement": "phenol level in exhaled breath, tumor bearing mouse group versus healthy mouse group", "setting": "[2]; Day 0 (no solid tumors), 200 μg/kg intravenously, Mann-Whitney U-test", "value": "consistent without significant difference"}, {"measurement": "phenol level in exhaled breath, tumor bearing mouse group versus healthy group", "setting": "[2]; from the 10th day onwards (solid tumors about 100 mm^3), 200 μg/kg intravenously, p<0.01", "value": "significantly higher"}, {"measurement": "toxic or side effect in animal experiment", "setting": "[2]; mouse, in vivo", "value": "no toxic or side effect"}, {"measurement": "fitted curve parameter A (tumor volume=A+B*phenol level in exhaled breath)", "setting": "[2]; tumor bearing mice, FIG. 6", "value": "2065116.64068±293370.09484"}, {"measurement": "fitted curve parameter B (tumor volume=A+B*phenol level in exhaled breath)", "setting": "[2]; tumor bearing mice, FIG. 6", "value": "26167.51388±981.4"}, {"measurement": "cell viability", "setting": "[3]", "value": "greater than 90%"}, {"measurement": "decomposition of substrate without β-glucuronidase", "setting": "β-glucuronidase; control group, glycerol instead of enzyme", "value": "not decomposed"}, {"measurement": "phenol production under the action of β-glucuronidase", "setting": "β-glucuronidase; experimental group, 500 U enzyme", "value": "produces phenol"}]}
